The values that follow come from PMC9104438, “Application of a Fluorescence Anisotropy-Based Assay to Quantify Transglutaminase 2 Activity in Cell Lysates” (International Journal of Molecular Sciences, 2022).

Data set [1] has as its target T1, hTGase 2 (Homo sapiens, UniProt P21980).
T1 sequence (P21980 1-687): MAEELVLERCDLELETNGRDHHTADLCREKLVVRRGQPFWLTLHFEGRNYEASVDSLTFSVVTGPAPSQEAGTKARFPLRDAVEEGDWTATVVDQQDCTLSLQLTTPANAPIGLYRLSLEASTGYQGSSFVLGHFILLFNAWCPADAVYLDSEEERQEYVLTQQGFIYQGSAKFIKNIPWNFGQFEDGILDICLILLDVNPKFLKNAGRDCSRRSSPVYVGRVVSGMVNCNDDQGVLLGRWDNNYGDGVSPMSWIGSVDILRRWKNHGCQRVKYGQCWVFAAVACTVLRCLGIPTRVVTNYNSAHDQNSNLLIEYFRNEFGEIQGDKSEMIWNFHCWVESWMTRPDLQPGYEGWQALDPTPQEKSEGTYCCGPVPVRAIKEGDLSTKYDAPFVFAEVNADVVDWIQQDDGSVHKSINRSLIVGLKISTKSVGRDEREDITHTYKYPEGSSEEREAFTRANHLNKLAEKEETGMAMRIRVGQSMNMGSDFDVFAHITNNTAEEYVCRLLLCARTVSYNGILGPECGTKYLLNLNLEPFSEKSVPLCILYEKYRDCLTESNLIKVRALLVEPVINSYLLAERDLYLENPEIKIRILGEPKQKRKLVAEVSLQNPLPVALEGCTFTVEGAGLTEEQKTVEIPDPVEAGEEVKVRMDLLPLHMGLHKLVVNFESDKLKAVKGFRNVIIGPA
Further details: purchased Zedira T022; method as in PMID 29664627. As to conditions: fluorimetric activity assay; mean (SEM); cited from earlier work.

Data set [2] addresses T1, hTGase 2. The experiment in a line: FA-based assay, characterization of irreversible inhibitors. Conditions: DMC 30 µM, mean (SEM).
Data set [3] addresses T1, hTGase 2. In words: Fluorimetric activity assay (substrate Z-Glu(HMC)-Gly-OH). It counts as biochemical. The arrangement: purchased Zedira T022. As to conditions: mean (SEM) of 2 experiments. How it is done: The kinetic characterization of compounds 3 and 4 by means of their kinact/KI values was performed using a fluorimetric activity assay (substrate Z-Glu(HMC)-Gly-OH) as described recently.

Data set [4] has as its target T2, hTGase 1 (Homo sapiens, UniProt P22735).
T2 sequence (P22735 1-817): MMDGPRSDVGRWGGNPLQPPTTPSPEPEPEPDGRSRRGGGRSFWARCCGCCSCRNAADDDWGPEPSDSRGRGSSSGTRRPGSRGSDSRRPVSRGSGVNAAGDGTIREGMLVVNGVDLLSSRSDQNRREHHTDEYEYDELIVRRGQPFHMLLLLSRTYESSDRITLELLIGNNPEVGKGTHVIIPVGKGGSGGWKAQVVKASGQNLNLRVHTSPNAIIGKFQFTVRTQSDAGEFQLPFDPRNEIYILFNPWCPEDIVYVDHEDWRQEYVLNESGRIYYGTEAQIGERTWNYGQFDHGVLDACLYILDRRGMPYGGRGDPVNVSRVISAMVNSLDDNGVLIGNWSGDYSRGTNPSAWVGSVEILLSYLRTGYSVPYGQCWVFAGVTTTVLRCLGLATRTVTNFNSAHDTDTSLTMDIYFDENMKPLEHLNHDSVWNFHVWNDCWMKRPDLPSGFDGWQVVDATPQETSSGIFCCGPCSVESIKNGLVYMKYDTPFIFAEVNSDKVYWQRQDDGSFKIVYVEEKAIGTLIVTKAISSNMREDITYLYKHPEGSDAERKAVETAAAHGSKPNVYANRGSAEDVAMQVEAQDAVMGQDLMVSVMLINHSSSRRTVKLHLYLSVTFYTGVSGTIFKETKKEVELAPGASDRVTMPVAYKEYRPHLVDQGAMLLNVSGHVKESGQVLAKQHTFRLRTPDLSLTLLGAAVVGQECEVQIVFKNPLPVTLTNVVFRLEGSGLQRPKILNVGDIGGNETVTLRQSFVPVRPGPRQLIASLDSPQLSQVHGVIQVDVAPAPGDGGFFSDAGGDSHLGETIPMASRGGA
In words: FA-based assay, kinetic characterization of acyl donor DMC with R-I-Cad. The data set is classed as biochemical. The arrangement: purchased Zedira T009. Conditions: hTGase 1 2 µg/mL, R-I-Cad 0.74 µM, pH 8.0, 30 °C, mean (SEM). The method, then: For the kinetic characterization of DMC (Figure 1B) in the presence of a fixed concentration of R-I-Cad (0.74 µM), eight different concentrations of DMC (0.3–300 µM) were used (2–3 separate experiments, each performed in duplicate). The corresponding stock solutions of DMC and R-I-Cad were prepared in assay buffer A and DMSO, respectively. […] Values for Km, Ki and Vmax were calculated according to the equation of substrate inhibition (Equation (2)). (2) v=Vmax∗[S]/Km+[S]∗(1+[S]/Ki)

Data set [5] has as its target T1, hTGase 2. The arrangement: purchased Zedira T022; method as in PMID 29664627. Conditions: hTGase 2 5 µg/mL, R-I-Cad 0.74 µM, mean (SEM), cited from earlier work.
Setting [6] is: IC50 hTGase 2, preincubation 30 min, R-I-Cad 0.74 µM, hTGase 2 5 µg/mL.
The mark [7] stands for this setting: IC50 hTGase 2, preincubation 5 min, R-I-Cad 0.81 µM, hTGase 2 2 µg/mL.
[8] abbreviates: read-out: Ki (substrate inhibition).

`C=CC(=O)NCCCC[C@H](NC(=O)Cc1ccccc1)C(=O)N1CCN(c2cccc(C)n2)CC1` [Compound 1]: the “kinact/KI hTGase 2” value in data set [1] is listed as 4880 (20)^c M^−1s^−1. In addition, the IC50 in data set [2] (setting [6]) was determined as 40 nM.

In the case of `C=CC(=O)NCCCC[C@H](NC(=O)Cc1ccccc1)C(=O)N1CCN(c2ccc([N+](=O)[O-])nc2)CC1` [Compound 2], the “kinact/KI hTGase 2” value in data set [1] is given as 8460 (710) ^c M^−1s^−1. The compound also had an IC50 in data set [2] (setting [6]) of 42 nM.

`C#Cc1cccc(N2CCN(C(=O)[C@H](CCCCNC(=O)C=C)NC(=O)Cc3ccccc3)CC2)n1` [Compound 3, N^α-Phenylacetyl-N^ε-acryloyl-L-lysine-4-(6-ethinylpyridin-2-yl)piperazide]: the kinact/KI in data set [3] worked out at 3450 M⁻¹ s⁻¹. In addition, the concentration for half-maximal inhibition (IC50) in data set [2] (setting [7]) was determined as 441 nM; in data set [2] (setting [6]) it was 96 nM.

On to `C=CC(=O)NCCCC[C@H](NC(=O)Cc1ccccc1)C(=O)N1CCN(c2cccc(-c3cn(CCOCCOCCOCCNC(=O)CCCC[C@@H]4SC[C@@H]5NC(=O)N[C@@H]54)nn3)n2)CC1` [Compound 4, N-(2-(2-(2-(2-(4-(6-(4-(N^6-acryloyl-N^2-(2-phenylacetyl)-L-lysyl)piperazin-1-yl)pyridin-2-yl)-1H-1,2,3-triazol-1-yl)ethoxy)ethoxy)ethoxy)ethyl)-5-((3aS,4S,6aR)-2-oxohexahydro-1H-thieno[3,4-d]imidazol-4-yl)pentanamide], for which, in data set [3], the kinact/KI was 7260 M⁻¹ s⁻¹. The IC50 was 249 nM in data set [2] (setting [7]) and 68 nM in data set [2] (setting [6]).

N,N-dimethylated casein [DMC]: the Vmax is 121 (13) mA mL s^−1 mg^−1 in data set [4] (DMC 0.3–300 µM, 5% DMSO, 500 µM DTT) and 26.4 (2.8) mA mL s^−1 mg^−1 in data set [5] (pH 8.0, 30 °C). The values for the Michaelis constant (Km) in data set [4] and in data set [5] were 8.77 µM and 2.78 µM, respectively. Further, the Ki in data set [4] (setting [8]) was 270000 nM; in data set [5] (setting [8]), 174000 nM.

As a reminder, the IC50 is the concentration that inhibits the measured activity by half. A low value points to greater potency in that assay. One may read the kinact/KI as the second-order rate constant of inactivation. Broadly, the Km is the concentration of substrate that gives half-maximal velocity.
